Results on 26 compounds are retold here after patent US6268391A, “Benzylidene-1,3-dihydro-indol-2-one derivatives a receptor tyrosine kinase inhibitors, particularly of Raf kinases” (Glaxo Wellcome Inc., priority 1997, dated 2001).

This assay has as its target T1, Human cRaf1 (Homo sapiens, UniProt P04049).
T1 construct: poly-histidine (C); made in house
Put plainly: Raf kinase assay (cRaf1 assay / Raf/MEK cascade assay). Type of assay: biochemical.

Where [1] appears, read: Table 3, read-out: Raf Kinase activity.

Where two headings read alike, the source gives them in different places.

T1 sequence (P04049 whole entry): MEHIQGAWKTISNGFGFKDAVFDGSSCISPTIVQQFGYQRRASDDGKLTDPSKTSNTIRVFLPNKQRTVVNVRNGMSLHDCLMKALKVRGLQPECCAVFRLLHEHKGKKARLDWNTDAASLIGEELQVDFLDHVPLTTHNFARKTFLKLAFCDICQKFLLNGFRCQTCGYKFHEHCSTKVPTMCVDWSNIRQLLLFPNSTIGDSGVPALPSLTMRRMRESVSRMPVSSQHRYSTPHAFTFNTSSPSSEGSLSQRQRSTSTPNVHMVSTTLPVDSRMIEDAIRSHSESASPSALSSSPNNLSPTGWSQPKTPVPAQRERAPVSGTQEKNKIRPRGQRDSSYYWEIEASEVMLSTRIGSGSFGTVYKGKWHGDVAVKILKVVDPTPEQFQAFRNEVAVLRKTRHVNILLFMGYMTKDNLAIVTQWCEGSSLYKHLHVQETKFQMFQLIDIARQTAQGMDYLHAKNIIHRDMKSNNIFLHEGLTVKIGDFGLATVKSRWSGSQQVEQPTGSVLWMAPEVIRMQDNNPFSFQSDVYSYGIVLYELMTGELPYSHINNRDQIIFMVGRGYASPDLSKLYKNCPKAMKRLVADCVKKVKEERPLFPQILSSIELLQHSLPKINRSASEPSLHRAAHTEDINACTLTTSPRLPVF

In the case of `CC(C)COC(=O)Oc1c(Br)cc(C=C2C(=O)Nc3ccc(Cl)cc32)cc1Br` [Example 148, 2,6-Dibromo-4-[(5-chloro-2-oxo-1,2-dihydro-3H-indol-3-ylidene)methyl]phenyl isobutyl carbonate], under setting [1], the IC50 lay in the range of 10000 to 100000 nM. On the same count and under the same terms, the value for `O=C(OCc1cccnc1)Oc1c(Br)cc(C=C2C(=O)Nc3ccc(Cl)cc32)cc1Br` [Example 149, 2,6-Dibromo-4-[(5-chloro-2-oxo-1,2-dihydro-3H-indol-3-ylidene)methyl]phenyl 3-pyridinylmethyl carbonate] was 10000 to 100000 nM; that for `CC(C)(C)C(=O)OCOc1c(Br)cc(C=C2C(=O)Nc3ccc(Cl)cc32)cc1Br` [Example 150, 2,6-Dibromo-4-[(5-chloro-2-oxo-1,2-dihydro-3H-indol-3-ylidene)methyl]phenoxymethyl pivalate] was 10000 to 100000 nM; that for `O=C1Nc2ccc(I)cc2C1=Cc1cc(Br)c(OC(=O)N2CCOCC2)c(Br)c1` [Example 151, 2,6-Dibromo-4-[(5-iodo-2-oxo-1,2-dihydro-3H-indol-3-ylidene)methyl]phenyl 4-morpholinecarboxylate] was 10000 to 100000 nM. As to `O=C(NCCOCCO)Oc1c(Br)cc(C=C2C(=O)Nc3ccc(I)cc32)cc1Br` [Example 152, 2,6-Dibromo-4-[(5-iodo-2-oxo-1,2-dihydro-3H-indol-3-ylidene)methyl]phenyl N-[2-(2-hydroxyethoxy)ethyl]carbamate], under setting [1], the IC50 is less than 1000 nM. For `CN1CCN(C(=O)Oc2c(Br)cc(C=C3C(=O)Nc4ccc(I)cc43)cc2Br)CC1` [Example 153, 2,6-Dibromo-4-[(5-iodo-2-oxo-1,2-dihydro-3H-indol-3-ylidene)methyl]phenyl 4-methyltetrahydro-1(2H)-pyrazinecarboxylate], the IC50 was in the range of 10000 to 100000 nM. As to `CCN(CC)C(=O)Oc1c(Br)cc(C=C2C(=O)Nc3ccc(I)cc32)cc1Br` [Example 154, 2,6-Dibromo-4-[(5-iodo-2-oxo-1,2-dihydro-3H-indol-3-ylidene)methyl]phenyl N,N-diethylcarbamate], the IC50 under setting [1] lay in the range of 10000 to 100000 nM. On the same count and under the same terms, the value for `O=C1Nc2ccc(C(=O)O)cc2C1=Cc1cc(Br)c(O)c(Br)c1` [Example 156, 3-(3,5-Dibromo-4-hydroxy-benzylidene)-2-oxo-2,3-dihydro-1H-indol-5-carboxylic acid] was less than 1000 nM; that for `O=C1Nc2ccc(S(=O)(=O)N(CCO)CCO)cc2C1=Cc1cc(Br)c(O)c(Br)c1` [Example 157, 3-[(3,5-Dibromo-4-hydroxyphenyl)methylidene]-N,N-bis(2-hydroxyethyl)-2-oxo-5-indolinesulfonamide] was less than 1000 nM; that for `O=C1Nc2ccc(NC(=O)c3ccccc3)cc2C1=Cc1cc(Br)c(O)c(Br)c1` [Example 158, N-3-[(3,5-Dibromo-4-hydroxyphenyl)methylidene]-2-oxo-2,3-dihydro-1H-indol-5-ylbenzamide] was less than 1000 nM. Regarding `CC(=O)Nc1ccc2c(c1)C(=Cc1cc(Br)c(O)c(Br)c1)C(=O)N2` [Example 159], under setting [1], the IC50 is less than 1000 nM. Turning to `O=C(CO)Nc1ccc2c(c1)C(=Cc1cc(Br)c(O)c(Br)c1)C(=O)N2` [Example 160, N-3-[(3,5-Dibromo-4-hydroxyphenyl)methylidene]-2-oxo-2,3-dihydro-1H-indol-5-yl-2-hydroxyacetamide], the IC50 under setting [1] was less than 1000 nM. `O=C1Nc2ccc(C(=O)NCCCc3ccccc3)cc2C1=Cc1cc(Br)c(O)c(Br)c1` [Example 161, 3-[(3,5-Dibromo-4-hydroxyphenyl)methylidene]-2-oxo-N-(3-phenylpropyl)-5-indolinecarboxamide]: under setting [1], the IC50 is less than 1000 nM.

With `O=C1Nc2ccc(C(=O)NCc3ccccc3)cc2C1=Cc1cc(Br)c(O)c(Br)c1` [Example 162, N-Benzyl-3-[(3,5-dibromo-4-hydroxyphenyl)methylidene]-2-oxo-5-indolinecarboxamide], the IC50 under setting [1] is less than 1000 nM. Still for that read-out and setting: to `CN(C)c1ccc2c(c1)C(=Cc1cc(Br)c(O)c(Br)c1)C(=O)N2` [Example 163, 3-[(3,5-Dibromo-4-hydroxyphenyl)methylidene]-5-(dimethylamino)-1,3-dihydro-2H-indol-2-one] belongs less than 1000 nM; to `CCN(CC)C(=O)Oc1c(Br)cc(C=C2C(=O)Nc3ccc(S(N)(=O)=O)cc32)cc1Br` [Example 164, 4-[5-(Aminosulfonyl)-2-oxo-1,2-dihydro-3H-indol-3-ylidene]methyl-2,6-dibromophenyl N,N-diethylcarbamate], 1000 to 10000 nM. On the same count and under the same terms, to `Cc1ccc2c3c(ccc2n1)NC(=O)C3=Cc1cc(Br)c(O)c(Br)c1` [Example 165, 1-[(3,5-Dibromo-4-hydroxyphenyl)methylidene]-7-methyl-1,3-dihydro-2H-pyrrolo[3,2-f]quinolin-2-one] belongs less than 1000 nM; to `Nc1ccc2c(c1)C(=Cc1cc(Br)c(O)c(Br)c1)C(=O)N2` [Example 166, 5-Amino-3-[(3,5-dibromo-4-hydroxyphenyl)methylidene]-1,3-dihydro-2H-indol-2-one], less than 1000 nM; to `CCN(CC)C(=O)Oc1c(Br)cc(C=C2C(=O)Nc3ccc(C(=O)c4ccccc4)cc32)cc1Br` [Example 167, 4-[(5-Benzoyl-2-oxo-1,2-dihydro-3H-indol-3-yildene)methyl]-2,6-dibromophenyl N,N-diethylcarbamate], 10000 to 100000 nM. Consider `CN(C)CCNC(=O)c1ccc2c(c1)C(=Cc1cc(Br)c(O)c(Br)c1)C(=O)N2` [Example 168, 3-[(3,5-Dibromo-4-hydroxyphenyl)methylidene]-N-(2-(dimethylamino)ethyl]-2-oxo-5-indolinecarboxamide], for which, under setting [1], the IC50 is less than 1000 nM. With `O=C1Nc2ccc(-c3cc(C(F)(F)F)cc(C(F)(F)F)c3)cc2C1=Cc1cc(Br)c(O)c(Br)c1` [Example 169, 5-[3,5-bis(Trifluoromethyl)phenyl]-3-[(3,5-dibromo-4-hydroxyphenyl)methylidene]-1,3-dihydro-2H-indol-2-one], the IC50 under setting [1] was less than 1000 nM. As to `O=C1Nc2ccc(-c3ccc(Cl)cc3Cl)cc2C1=Cc1cc(Br)c(O)c(Br)c1` [Example 171, 3-[(3,5-Dibromo-4-hydroxyphenyl)methylidene]-5-(2,4-dichlorophenyl)-1,3-dihydro-2H-indol-2-one], the IC50 under setting [1] was less than 1000 nM.

Consider `O=C1Nc2ccc(C(=O)NCCO)cc2C1=Cc1cc(Br)c(O)c(Br)c1` [Example 172, 3-[(3,5-Dibromo-4-hydroxyphenyl)methylidene]-N-(2-hydroxyethyl)-2-oxo-5-indolinecarboxamide], for which the IC50 under setting [1] is less than 1000 nM. On to `CN(C)c1nc(-c2ccc3c(c2)C(=Cc2cc(Br)c(O)c(Br)c2)C(=O)N3)cs1` [Example 173, 3-[(3,5-Dibromo-4-hydroxyphenyl)methylidene]-5-[2-(dimethylamino)-1,3-thiazol-4-yl]-1,3-dihydro-2H-indol-2-one], for which the IC50 under setting [1] was less than 1000 nM.

As to `CS(=O)(=O)c1ccc2c(c1)C(=Cc1cc(Br)c(O)c(Br)c1)C(=O)N2` [Example 174, 3-[(3,5-Dibromo-4-hydroxyphenyl)methylidene]-5-(methylsulfonyl)-1,3-dihydro-2H-indol-2-one], the IC50 under setting [1] is less than 1000 nM.

Regarding `NS(=O)(=O)c1ccc(-c2ccc3c(c2)C(=Cc2cc(Br)c(O)c(Br)c2)C(=O)N3)cc1` [Example 175, 4-3-[(3,5-Dibromo-4-hydroxyphenyl)methylidene]-2-oxo 2,3-dihydro-1H-indol-5-ylbenzenesulfonamide], the IC50 under setting [1] is less than 1000 nM.
